According to article PMC9879403, “Oncolytic strategy using new bifunctional HDACs/BRD4 inhibitors against virus-associated lymphomas” (PLOS Pathogens, 2023):
Where two headings read alike, the source gives them in different places.

What was measured:
BCBL-1 cells [1] = assay: RNA-Sequencing of compound-treated vs vehicle-treated cells; type: cell-based, human; conditions: for Ratio, ARC / Ratio, ARRDC3 / Ratio, ATF3 / Ratio, CCDC169-SOHLH2 / Ratio, CD28 / Ratio, CD44 / Ratio, CFAP58 / Ratio, CHAC1 / Ratio, CSF1R / Ratio, DDIT3 / Ratio, DDIT4 / Ratio, FOS / Ratio, IFNG / Ratio, IRF7 / Ratio, LGALS9B / Ratio, MCM5 / Ratio, PRKCB / Ratio, RP11-707M3.3 / Ratio, SOCS3 / Ratio, SPINT1: gene expression, treated vs vehicle BCBL-1 cells
Description: RNA-Sequencing (RNA-Seq) of triplicate samples was performed by BGI Americas Corporation using their unique DNBSEQ sequencing technology. The completed RNA-Sequencing data was submitted to NCBI Sequence Read Archive (SRA# # PRJNA813422). Raw sequencing reads were analyzed using the RSEM software (version 1.3.0; human GRCh38 genome sequence and annotation) and gene expression was quantified as previously described. The EBSeq software was utilized to call differentially expressed genes that were statistically significant using a false discovery rate (FDR) less than 0.05. Differentially expressed genes between compounds- and vehicle-treated PEL cells were used as input for the GO enrichment analyses.

JSC-1 = assay: WST-1 cytotoxicity assay, JSC-1 (KSHV+ PEL); type: cell-based; conditions: 72 h
Excerpt: (§1) Fig 2 Identification of newly synthesized dual inhibitors with anti-PEL activities. (A) The binding mode of (+)-JQ1 with BRD4^BD1 (PDB: 3MXF). BRD4^BD1 is shown as hot pink cartoon with gray surface. Asn140 in BRD4^BD1 is shown as sticks and colored in following pattern: atom C hot pink, atom N dark blue, and atom O yellow. (+)-JQ1 is shown as sticks and colored in following patten: atom C hot pink, atom N dark blue, atom O yellow, atom S golden, and atom Cl green. The solvent exposed region (SEG) of (+)-JQ1 are indicated with white arrow. (B) The binding modes of SAHA and entinostat with HDAC2 (PDB: 3MAX). HDAC2 is shown as blue cartoon with gray surface. Asp181 and His183 in HDAC2 are shown as sticks and colored in following pattern: atom C blue, atom N dark blue, and atom O yellow. The catalytic zinc ion in the active site of HDAC2 is shown as black sphere. SAHA is shown as sticks and colored in following pattern: atom C green, atom N dark blue, and atom O yellow. Entinostat is shown as sticks and colored in following pattern: atom C hot pink, atom N dark blue, and atom O yellow. The SEG of SAHA or entinostat is indicated with white arrow. Hydrogen bonds (H-bonds) are presented by red dash lines. (C) The HDACs/BRD4 dual inhibitors 002-011 were designed by fusing the key pharmacophores of (+)-JQ1 (pink) and HDAC inhibitors (blue), SAHA or entinostat, via various chemical linkers (green). (D) Anti-PEL activities of the new compounds. Five KSHV positive and two KSHV negative lymphoma cell lines were treated with indicated concentrations of these compounds for 72 h. Then the cytotoxicity was determined using the WST-1 assay. (+)-JQ1, SAHA and entinostat were used for the comparisons as single inhibitors. The CC50 for each compound was calculated using GraphPad Prism 5.0 software. Error bars represent S.D. for 3 independent experiments.
(§2) Fig 4 Identification of anti-PEL activities for compound 009 stereoisomers. (A) The chemical structures of anti-HDACs/BRD4 bifunctional molecules 009P1 and 009P2, as well as anti-HDACs or anti-BRD4 mono-functional molecules 009N1, 009N2, 009N3, and 009N4. (B-C) Four KSHV+ PEL cell lines were treated with indicated concentrations of 009P1, 009P2 or 009N1-N4 for 72 h, then the cytotoxicity was determined using the WST-1 assay. (D-I) BCBL-1 cells were treated with these compounds at the respective 2× CC50 for 24 h, then cell cycle (D-F) and apoptosis (G-I) were measured by flow cytometry analysis. Error bars represent S.D. for 3 independent experiments, ** = p<0.01 (vs vehicle control).
(§3) The cell viability following treatment with compounds was assessed by the WST-1 assay (Roche, Indianapolis, Indiana, USA) according to the manufacturer’s protocol as described previously. The absorbance signal was measured using a microplate reader (Biotek Synergy 2). The 50% cytotoxic concentration (CC50) for each compound was calculated from these dose-response curves using the software GraphPad Prism v5.0. Data were normalized as the fold change compared to the DMSO control.

BC-1 = assay: WST-1 cytotoxicity assay, BC-1 (KSHV+ PEL); type: cell-based; conditions: Homo sapiens, BC1, 72 h
Excerpt: as §1, §2, §3

HUVEC = assay: WST-1 cytotoxicity on primary cells HUVEC; type: cell-based, human
Description: as §3
Supplementary file ppat.1011089.s006.tif: S5 Fig Cytotoxicity of tested compounds on HUVEC. The primary cells HUVEC were treated with indicated concentrations of compounds for 72 h, then cell viability was assessed using the WST-1 assay. The CC50 for each compound was calculated from the dose-response curves using Graphpad Prism 5.0 software. Data was normalized as the fold change compared to the DMSO control. (TIF) Click here for additional data file.

BRD4 = BRD4 signaling by Western blot (c-Myc expression); type: cell-based
BCBL-1 = assay: WST-1 cytotoxicity assay, BCBL-1 (KSHV+ PEL); type: cell-based; conditions: BCBL1, 72 h
Excerpt: as §1, §2, §3

BCP-1 = assay: WST-1 cytotoxicity assay, BCP-1 (KSHV+ PEL); type: cell-based; conditions: BCP-1, 72 h
Excerpt: as §1, §2, §3

BCBL-1 cells [2] = assay: Cell death regulatory proteins by Western blot; type: cell-based; conditions: 50 nM, 48 h
[3] = read-out: KSHV-infected lymphomas CC50, JSC-1
[4] = read-out: KSHV-infected lymphomas CC50, BC-1
[5] = BCBL-1 cells, 48 h, Western blot
[6] = read-out: KSHV-infected lymphomas CC50, BCBL-1
[7] = read-out: KSHV-infected lymphomas CC50, BCP-1

O=C(CCCCCCC(=O)Nc1ccccc1)NO [SAHA, suberoylanilide hydroxamic acid, reference compound]
Ratio, ARC (BCBL-1 cells [1]): 10.26 | Ratio, ARRDC3 (BCBL-1 cells [1]): 7.834 | Ratio, ATF3 (BCBL-1 cells [1]): 33.64 | Ratio, CCDC169-SOHLH2 (BCBL-1 cells [1]): 0.1697 | Ratio, CD28 (BCBL-1 cells [1]): 0.3793 | Ratio, CD44 (BCBL-1 cells [1]): 0.293 | Ratio, CFAP58 (BCBL-1 cells [1]): 0.411 | Ratio, CHAC1 (BCBL-1 cells [1]): 53.96 | Ratio, CSF1R (BCBL-1 cells [1]): 3.864 | Ratio, DDIT3 (BCBL-1 cells [1]): 16.62 | Ratio, DDIT4 (BCBL-1 cells [1]): 5.426 | Ratio, FOS (BCBL-1 cells [1]): 21.04 | Ratio, IFNG (BCBL-1 cells [1]): 0.312 | Ratio, IRF7 (BCBL-1 cells [1]): 5.624 | Ratio, LGALS9B (BCBL-1 cells [1]): 0.3605 | Ratio, MCM5 (BCBL-1 cells [1]): 0.4255 | Ratio, PRKCB (BCBL-1 cells [1]): 0.3013 | Ratio, RP11-707M3.3 (BCBL-1 cells [1]): 0.2461 | Ratio, SOCS3 (BCBL-1 cells [1]): 9.781 | CC50 (JSC-1; [3]): 680 nM | CC50 (BC-1; [4]): 1380 nM | Cytotoxicity in primary cells HUVEC (HUVEC; 72 h, WST-1): moderate cytotoxicity | c-Myc expression (BRD4; [5]): subtle effect | CC50 (BCBL-1; [6]): 41 nM | CC50 (BCP-1; [7]): 1420 nM | Expression of p-RB, cleaved-caspase 3 and cleaved-PARP (BCBL-1 cells [2]): almost unchanged

Cc1sc2c(c1C)C(c1ccc(Cl)cc1)=N[C@@H](CC(=O)OC(C)(C)C)c1nnc(C)n1-2 [(+)-JQ1, reference compound]
Ratio, ARC (BCBL-1 cells [1]): 21.83 | Ratio, ARRDC3 (BCBL-1 cells [1]): 27.58 | Ratio, ATF3 (BCBL-1 cells [1]): 28.74 | Ratio, CCDC169-SOHLH2 (BCBL-1 cells [1]): 0.1299 | Ratio, CD28 (BCBL-1 cells [1]): 0.05544 | Ratio, CD44 (BCBL-1 cells [1]): 0.09101 | Ratio, CFAP58 (BCBL-1 cells [1]): 0.2089 | Ratio, CHAC1 (BCBL-1 cells [1]): 55.65 | Ratio, CSF1R (BCBL-1 cells [1]): 62.41 | Ratio, DDIT3 (BCBL-1 cells [1]): 20.73 | Ratio, DDIT4 (BCBL-1 cells [1]): 28.37 | Ratio, FOS (BCBL-1 cells [1]): 78.64 | Ratio, IFNG (BCBL-1 cells [1]): 0.1251 | Ratio, IRF7 (BCBL-1 cells [1]): 52.67 | Ratio, LGALS9B (BCBL-1 cells [1]): 0.04587 | Ratio, MCM5 (BCBL-1 cells [1]): 0.1471 | Ratio, PRKCB (BCBL-1 cells [1]): 0.06358 | Ratio, RP11-707M3.3 (BCBL-1 cells [1]): 0.2212 | Ratio, SOCS3 (BCBL-1 cells [1]): 37.19 | Ratio, SPINT1 (BCBL-1 cells [1]): 0.1876 | CC50 (JSC-1; [3]): 41 nM | CC50 (BC-1; [4]): 44 nM | Cytotoxicity in primary cells HUVEC (HUVEC; 72 h, WST-1): moderate cytotoxicity | c-Myc expression (BRD4): drastically downregulated | CC50 (BCBL-1; [6]): 18 nM | CC50 (BCP-1; [7]): 59 nM | Expression of p-RB, cleaved-caspase 3 and cleaved-PARP (BCBL-1 cells [2]): almost unchanged

Cc1sc2c(c1C)C(c1ccc(Cl)cc1)=N[C@@H](CC(=O)O[C@H](C)c1ccc(C(=O)Nc3ccccc3N)cc1)c1nnc(C)n1-2 [009P1, (R)-1-(4-((2-aminophenyl)carbamoyl)phenyl)ethyl 2-((S)-4-(4-chlorophenyl)-2,3,9-trimethyl-6H-thieno[3,2-f][1,2,4]triazolo[4,3-a][1,4]diazepin-6-yl)acetate]
Genes differentially expressed between 009P1- and 009P2-treated PEL cells (BCBL-1 cells [1]; BCBL-1, ≥ 2 fold-change and FDR < 0.05): 473 genes | Ratio, ARC (BCBL-1 cells [1]): 18.81 | Ratio, ARRDC3 (BCBL-1 cells [1]): 30.72 | Ratio, ATF3 (BCBL-1 cells [1]): 12.86 | Ratio, CCDC169-SOHLH2 (BCBL-1 cells [1]): 0.3358 | Ratio, CD28 (BCBL-1 cells [1]): 0.4509 | Ratio, CD44 (BCBL-1 cells [1]): 0.1954 | Ratio, CFAP58 (BCBL-1 cells [1]): 0.1358 | Ratio, CHAC1 (BCBL-1 cells [1]): 8.345 | Ratio, CSF1R (BCBL-1 cells [1]): 24.82 | Ratio, DDIT3 (BCBL-1 cells [1]): 12.33 | Ratio, DDIT4 (BCBL-1 cells [1]): 21.76 | Ratio, FOS (BCBL-1 cells [1]): 46.18 | Ratio, IFNG (BCBL-1 cells [1]): 0.1678 | Ratio, IRF7 (BCBL-1 cells [1]): 23.79 | Ratio, LGALS9B (BCBL-1 cells [1]): 0.03812 | Ratio, MCM5 (BCBL-1 cells [1]): 0.2002 | Ratio, PRKCB (BCBL-1 cells [1]): 0.02626 | Ratio, RP11-707M3.3 (BCBL-1 cells [1]): 0.3443 | Ratio, SOCS3 (BCBL-1 cells [1]): 41.42 | Ratio, SPINT1 (BCBL-1 cells [1]): 0.1504 | CC50 (JSC-1; read-out: CC50, JSC-1): 300 nM | CC50 (BC-1; read-out: CC50, BC-1): 42 nM | Cytotoxicity in primary cells HUVEC (HUVEC): much less cytotoxicity | c-Myc expression (BRD4; [5]): decreased | CC50 (BCBL-1; read-out: CC50, BCBL-1): 16 nM | CC50 (BCP-1; read-out: CC50, BCP-1): 120 nM | Expression of p-RB, cleaved-caspase 3 and cleaved-PARP (BCBL-1 cells [2]): strongly affected
